From patent US20120149902A1, “PYRROLO[2,3-D]PYRIMIDINE DERIVATIVE” (UBE INDUSTRIES, LTD., priority 2009, published 2012)

Key:
[1] = tested on: HER2 overexpressed gastric cancer cell line NCI-N87; test: Cytotoxic activity (in vitro), CellTiter-Glo viable cell count; type: cell-based; settings: Homo sapiens, NCI-N87, 72 h, NCI-N87, cultured for 72 hours
Experimental: The cytotoxic activity of a compound of the present invention was investigated using a HER2 overexpressed gastric cancer cell line NCI-N87. Specifically, an appropriate amount of cells was seeded into a 96-well plate for cell culture at 50 μL/well, and precultured overnight at 37° C. under 5% —CO2 condition. A solution of a test compound in DMSO with dilution series was diluted with medium, and added to the precultured cells at the volume of 50 μL/well. The mixture was prepared such that the final concentration of DMSO became 0.1%. After the mixture was cultured for 72 hours at 37° C. under 5% —CO2 condition, 100 μL/well of CellTiter-Glo solution (Promega, Madison, Wis.) was added, the luminescence was measured using a luminometer (Wallac ARVO™ SX) 10 minutes later, and the viable cell count was determined.

[2] = tested on: HER2 overexpressed gastric cancer cell line; test: In vivo anti-tumor effect, subcutaneous tumor transplant in nude mouse; settings: oral, daily except Saturday and Sunday, 2 to 4 weeks, read-out: Tumor growth inhibition ratio (%); for inhibition in vivo at 60 mg/kg: dosage 60 mg/kg; for inhibition in vivo at 30 mg/kg: dosage 30 mg/kg; for inhibition in vivo at 100 mg/kg: dosage 100 mg/kg
Experimental: The anti-tumor effect in vivo of a compound of the present invention was evaluated using a HER2 overexpressed gastric cancer cell line. Specifically, a tumor fragment with about 5 mm square was transplanted subcutaneously using a transplantation needle, or an appropriate number of tumor cells was suspended in saline (Otsuka Pharmaceutical Co., Ltd.) and transplanted under the skin of the right axillary region of a nude mouse using a glass syringe equipped with a two-stage needle for subcutaneous injection. After the confirmation of the engraftment of the transplanted tumors, the mice were classified into groups depending on the tumor volume. The test compounds: the Example Compounds 1-1, 1-2, 1-5, 1-8, 1-13, 1-14, 1-15, 1-19, 1-20, 1-22, 2-1, 2-3, and 3-2 were each dissolved or suspended in an appropriate medium and orally administered forcedly to a mouse. The period of administration was varied from 2 weeks to 4 weeks depending on tumor, and the administration was carried out daily with drug holidays of Saturday and Sunday. The major axis (mm) and the minor axis (mm) of a tumor were measured sequentially using an electronic digital vernier caliper, and evaluated by the tumor growth inhibition ratio (GI %) on the judgement day (in principle, the next day of the final administration) using the following calculating formula.
A: Average tumor volume on the judgement day of the group to which a compound was administered (*)
B: Average tumor volume on the judgement day of the untreated control group (*)
*: The tumor volume is calculated by ½×[major axis of tumor]×[minor axis of tumor]^2.

[3] = biological target: T1, purified human recombinant HER2 kinase (Lys676-Val1255, GST fusion) (Homo sapiens, UniProt P04626); test: HER2 kinase enzyme inhibitory activity (HTRF); type: biochemical; settings: 200 μM ATP, FLT3 analogous peptide substrate, 60 minutes at room temperature
T1 construct: human recombinant HER2 kinase (Lys676-Val1255, GST fusion); GST
T1 sequence (P04626 676-1255): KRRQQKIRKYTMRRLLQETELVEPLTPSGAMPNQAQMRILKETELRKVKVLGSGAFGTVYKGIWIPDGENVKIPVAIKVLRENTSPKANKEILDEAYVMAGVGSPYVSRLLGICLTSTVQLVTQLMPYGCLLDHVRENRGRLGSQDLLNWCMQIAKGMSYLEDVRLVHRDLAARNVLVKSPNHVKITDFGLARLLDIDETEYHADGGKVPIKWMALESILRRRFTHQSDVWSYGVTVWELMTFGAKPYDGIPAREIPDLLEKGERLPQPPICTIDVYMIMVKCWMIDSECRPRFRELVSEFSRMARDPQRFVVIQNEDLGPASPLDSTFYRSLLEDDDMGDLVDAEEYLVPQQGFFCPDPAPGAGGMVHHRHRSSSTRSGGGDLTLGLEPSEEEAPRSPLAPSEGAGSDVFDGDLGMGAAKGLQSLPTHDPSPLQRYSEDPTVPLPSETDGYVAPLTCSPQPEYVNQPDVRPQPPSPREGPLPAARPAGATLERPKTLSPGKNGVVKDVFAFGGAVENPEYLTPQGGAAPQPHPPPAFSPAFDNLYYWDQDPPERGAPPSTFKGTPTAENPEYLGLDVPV
Experimental: The HER2 kinase enzyme inhibitory activity of a compound of the present invention was evaluated by using a purified human recombinant HER2 kinase (Lys676-Val1255, GST fusion) and a synthetic peptide as a substrate, and detecting the phosphorylation level of the substrate by the HTRF method (homogeneous time resolved fluorescence method). Specifically, 25 ng/well of activated HER2, 200 μM of ATP, 200 ng/well of FLT3 analogous peptide (biotin label, peptide sequence is AGGSSDNEYFYVDF), and test compound (final concentration 0.01 nM to 30 μM) were mixed in kinase reaction buffer (60 mM HEPES, 5 mM MgCl2, 5 mM MnCl2, 3 mM Na3VO4, 1.25 mM DTT, pH 7.5) to prepare 50 μL/well of total reaction volume, and the mixture was reacted for 60 minutes at room temperature. Then, the phosphorylation reaction was stopped and HTRF reaction was carried out by adding 25 μL/well of PBS solution comprising the following components and reacting the mixture for 12 to 16 hours at 4° C. The following components were dissolved in PBS (pH 7.0) to prepare the PBS solution composition: 60 mM EDTA (final concentration 20 mM), 1.2 M KF (final concentration […]), 1 mg/mL BSA (final concentration 333 μg/mL), 6 μg/mL anti-PY20-Cryptate (Cisbio international, France, final concentration 2 μg/mL), and 15 μg/mL Streptavidin labeled with XL665 (Cisbio international, France, final concentration 5 μg/mL).

| Structure (SMILES) | GI50 [1] [nM] | IC50 [3] [nM] | other results |
| --- | --- | --- | --- |
| NC1CCN(Cc2c[nH]c3ncnc(Nc4ccc5occc5c4)c23)CC1 [Example 1-1, [5-(4-Aminopiperidin-1-ylmethyl)-7H-pyrrolo[2,3-d]pyrimidin-4-yl]benzofuran-5-ylamine] | 20 to 50 |  | inhibition in vivo at 60 mg/kg [2]: 84% |
| C#Cc1cccc(Nc2ncnc3[nH]cc(CN4CCC(N)CC4)c23)c1 [Example 1-5, [5-(4-Aminopiperidin-1-ylmethyl)-7H-pyrrolo[2,3-d]pyrimidin-4-yl](3-ethynylphenyl)amine] |  |  | inhibition in vivo at 30 mg/kg [2]: 90% |
| C#Cc1cccc(Nc2ncnc3[nH]cc(CN4CCC(C)(N)CC4)c23)c1 [Example 1-14, [5-(4-Amino-4-methylpiperidin-1-ylmethyl)-7H-pyrrolo[2,3-d]pyrimidin-4-yl](3-ethynylphenyl)amine] |  | 10 to 50 | inhibition in vivo at 10 mg/kg ([2]; dosage 10 mg/kg): 75% |
| NC1CCN(Cc2c[nH]c3ncnc(Nc4cc(F)c(F)c(F)c4)c23)CC1 [Example 1-7, [5-(4-Aminopiperidin-1-ylmethyl)-7H-pyrrolo[2,3-d]pyrimidin-4-yl](3,4,5-trifluorophenyl)amine] | < 20 | 10 to 50 |  |
| NC1CCN(Cc2c[nH]c3ncnc(Nc4ccc5[nH]ncc5c4)c23)CC1 [Example 1-9, [5-(4-Aminopiperidin-1-ylmethyl)-7H-pyrrolo[2,3-d]pyrimidin-4-yl](1H-indazol-5-yl)amine] | 50 to 500 | 10 to 50 |  |
| NC1CCN(Cc2c[nH]c3ncnc(Nc4cc(F)cc(Br)c4)c23)CC1 [Example 1-11, [5-(4-Aminopiperidin-1-ylmethyl)-7H-pyrrolo[2,3-d]pyrimidin-4-yl](3-bromo-5-fluorophenyl)amine] | 20 to 50 | 10 to 50 |  |
| CNC1CCN(Cc2c[nH]c3ncnc(Nc4cccc(Br)c4)c23)CC1 [Example 1-18] | < 20 | < 10 |  |
| N[C@@H]1CCN(Cc2c[nH]c3ncnc(Nc4cccc(Br)c4)c23)C[C@H]1O (relative stereo) [Example 2-3, trans-4-Amino-1-[4-(3-bromophenylamino)-7H-pyrrolo[2,3-d]pyrimidin-5-ylmethyl]piperidin-3-ol] | < 20 |  | inhibition in vivo at 100 mg/kg [2]: 76% |
| NC1CCN(Cc2c[nH]c3ncnc(Nc4ccc(Cl)c(Cl)c4)c23)CC1 [Example 1-10, [5-(4-Aminopiperidin-1-ylmethyl)-7H-pyrrolo[2,3-d]pyrimidin-4-yl](3,4-dichlorophenyl)amine] | 20 to 50 | < 10 |  |
| N[C@@H]1CCN(Cc2c[nH]c3ncnc(Nc4ccc(F)c(Cl)c4)c23)C[C@H]1O (relative stereo) [Example 2-1, trans-4-Amino-1-[4-(3-chloro-4-fluorophenylamino)-7H-pyrrolo[2,3-d]pyrimidin-5-ylmethyl]piperidin-3-ol] | 20 to 50 |  | inhibition in vivo at 100 mg/kg [2]: 52% |
| COc1ccc(Nc2ncnc3[nH]cc(CN4CCC(N)CC4)c23)cc1 [Example 1-19, [5-(4-Aminopiperidin-1-ylmethyl)-7H-pyrrolo[2,3-d]pyrimidin-4-yl](4-methoxyphenyl)amine] | 50 to 500 | ≥ 100 | inhibition in vivo at 100 mg/kg [2]: 44% |
| CC1CN(Cc2c[nH]c3ncnc(Nc4ccc(Cl)cc4)c23)CCC1N (single isomer, unassigned; enantiomer 1) [Example 1-22, trans-[5-(4-Amino-3-methylpiperidin-1-ylmethyl)-7H-pyrrolo[2,3-d]pyrimidin-4-yl](4-chlorophenyl)amine [Enantiomer 1]] |  | 50 to 100 | inhibition in vivo at 60 mg/kg [2]: 88% |
| COCC1(N)CCN(Cc2c[nH]c3ncnc(Nc4ccc5occc5c4)c23)CC1 [Example 1-17, [5-(4-Amino-4-methoxymethylpiperidin-1-ylmethyl)-7H-pyrrolo[2,3-d]pyrimidin-4-yl](benzofuran-5-yl)amine] | 20 to 50 | 50 to 100 |  |
| C#Cc1cccc(Nc2ncnc3[nH]cc(CN4CCC(NC)CC4)c23)c1 [Example 3-1, (3-Ethynylphenyl)[5-(4-methylaminopiperidin-1-ylmethyl)-7H-pyrrolo[2,3-d]pyrimidin-4-yl]amine] | < 20 | < 10 |  |
| COc1cccc(Nc2ncnc3[nH]cc(CN4CCC(C)(N)CC4)c23)c1 [Example 1-13, [5-(4-Amino-4-methylpiperidin-1-ylmethyl)-7H-pyrrolo[2,3-d]pyrimidin-4-yl](3-methoxyphenyl)amine] |  | < 10 | inhibition in vivo at 30 mg/kg [2]: 72% |
| NC1CCN(Cc2c[nH]c3ncnc(Nc4ccc(F)c(Cl)c4)c23)CC1 [Example 1-2, [5-(4-Aminopiperidin-1-ylmethyl)-7H-pyrrolo[2,3-d]pyrimidin-4-yl](3-chloro-4-fluorophenyl)amine] | 20 to 50 |  | inhibition in vivo at 30 mg/kg [2]: 75% |
| N[C@@H]1CCN(Cc2c[nH]c3ncnc(Nc4ccc5occc5c4)c23)C[C@H]1O (relative stereo) [Example 2-2, trans-4-Amino-1-[4-(benzofuran-5-ylamino)-7H-pyrrolo[2,3-d]pyrimidin-5-ylmethyl]piperidin-3-ol] | 20 to 50 |  |  |
| CC1(N)CCN(Cc2c[nH]c3ncnc(Nc4cccc(Br)c4)c23)CC1 [Example 1-12, [5-(4-Amino-4-methylpiperidin-1-ylmethyl)-7H-pyrrolo[2,3-d]pyrimidin-4-yl](3-bromophenyl)amine] |  | < 10 |  |
| CC1(N)CCN(Cc2c[nH]c3ncnc(Nc4ccc5occc5c4)c23)CC1 [Example 1-15, [5-(4-Amino-4-methylpiperidin-1-ylmethyl)-7H-pyrrolo[2,3-d]pyrimidin-4-yl](benzofuran-5-yl)amine] | 20 to 50 | 10 to 50 | inhibition in vivo at 60 mg/kg [2]: 90% |
| COCC1(N)CCN(Cc2c[nH]c3ncnc(Nc4cccc(Br)c4)c23)CC1 [Example 1-16, [5-(4-Amino-4-methoxymethylpiperidin-1-ylmethyl)-7H-pyrrolo[2,3-d]pyrimidin-4-yl](3-bromophenyl)amine] | < 20 | < 10 |  |
| CC1CN(Cc2c[nH]c3ncnc(Nc4ccc(Cl)cc4)c23)CCC1N (single isomer, unassigned; enantiomer 2) [Example 1-23, trans-[5-(4-Amino-3-methylpiperidin-1-ylmethyl)-7H-pyrrolo[2,3-d]pyrimidin-4-yl](4-chlorophenyl)amine [Enantiomer 2]] |  | ≥ 100 |  |
| Cc1ccc(Nc2ncnc3[nH]cc(CN4CCC(N)CC4)c23)cc1Br [Example 1-6, [5-(4-Aminopiperidin-1-ylmethyl)-7H-pyrrolo[2,3-d]pyrimidin-4-yl](3-bromo-4-methylphenyl)amine] | 20 to 50 | < 10 |  |
| C[C@@H]1CN(Cc2c[nH]c3ncnc(Nc4ccc(Cl)cc4)c23)CC[C@H]1N (relative stereo) [Example 1-21, trans-[5-(4-Amino-3-methylpiperidin-1-ylmethyl)-7H-pyrrolo[2,3-d]pyrimidin-4-yl](4-chlorophenyl)amine] | 20 to 50 | 50 to 100 |  |
